In experiment [1] the test system is Wnt activity (Wnt-responsive human Sp5 promoter, TCF/LEF binding sites) in SW480 colon carcinoma cells. As to the kind of experiment: Wnt activity screening assay: Sp5-Luc luciferase reporter gene in SW480 cells. It counts as cell-based. The conditions noted are these: for EC50: 10-point dose-response from 10 μM, incubated overnight; for inhibition at 10 µM: given for EC50 of >10 μM, read-out: percent inhibition at 10 μM. In outline: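 First, hygromycin-selected SW480 Sp5-Luc reporter cells are seeded in medium with 1% fetal bovine serum and exposed overnight to compound (up to 10 μM, 0.1% DMSO). Next, luciferase signal is read by luminescence. Finally, EC50 is fitted, or percent inhibition at 10 μM is reported above 10 μM.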
Background: In a reporter assay the amount or activity of a reporter protein is the signal.

Experiment [2] concerns Primary human fibroblasts derived from IPF patients (LL29 cells) treated with TGF-β1. As to the kind of experiment: Inhibition of the fibrotic process: αSMA staining in TGF-β1 treated fibroblasts. It counts as cell-based. As to conditions: Fibroblast, 96 h, LL29 fibroblasts treated with TGF-β1, 4 days; for inhibition at 10 µM: read-out: percent inhibition in brackets beside EC50 >10 μM. The essentials:
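Potency reflects suppression of TGF-β1-driven αSMA expression in IPF patient fibroblasts over 4 days. Values are EC50s from normalized αSMA-positive cell counts, with % inhibition at 10 μM when EC50 exceeded 10 μM.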

In the case of `CS(=O)(=O)NCc1cc(F)cc(-c2nccc3[nH]c(-c4n[nH]c5ccc(-c6cncnc6)nc45)nc23)c1` [Compound 503, N-(3-Fluoro-5-(2-(5-(pyrimidin-5-yl)-1H-pyrazolo[4,3-b]pyridin-3-yl)-1H-imidazo[4,5-c]pyridin-4-yl)benzyl)methanesulfonamide], the EC50 in experiment [1] and in experiment [2] was over 10000 nM in each case. Further, the inhibition at 10 µM in experiment [1] turned out to be 18.7%; in experiment [2], 0%.

For the molecule `O=C(Nc1cncc(-c2ccc3[nH]nc(-c4nc5c(-c6cccc(F)c6)nccc5[nH]4)c3n2)c1)C1CC1` [Compound 20, N-(5-(3-(4-(3-Fluorophenyl)-1H-imidazo[4,5-c]pyridin-2-yl)-1H-pyrazolo [4,3-b]pyridin-5-yl)pyridin-3-yl)cyclopropanecarboxamide], in experiment [1], the EC50 was over 10000 nM and the inhibition at 10 µM is 14.7%. Also, in experiment [2], the concentration giving a half-maximal response (EC50) was over 10000 nM and the inhibition at 10 µM is 14.1%.

With `CCCC(=O)Nc1cncc(-c2ccc3[nH]nc(-c4nc5c(-c6cc(F)cc(CNS(C)(=O)=O)c6)nccc5[nH]4)c3n2)c1` [Compound 493, N-(5-(3-(4-(3-Fluoro-5-(methylsulfonamidomethyl)phenyl)-1H-imidazo[4,5-c]pyridin-2-yl)-1H-pyrazolo[4,3-b]pyridin-5-yl)pyridin-3-yl)butyramide], in experiment [1], the EC50 was over 10000 nM and the inhibition at 10 µM is 15.1%. Also, in experiment [2], the EC50 is over 10000 nM and the inhibition at 10 µM stood at 0%.

With `Cc1ccncc1-c1ccc2[nH]nc(-c3nc4c(-c5cc(F)cc(CNS(C)(=O)=O)c5)nccc4[nH]3)c2n1` [Compound 481, N-(3-Fluoro-5-(2-(5-(4-methylpyridin-3-yl)-1H-pyrazolo[4,3-b]pyridin-3-yl)-1H-imidazo[4,5-c]pyridin-4-yl)benzyl)methanesulfonamide], the results for the EC50 in experiment [1] and in experiment [2] were 2370 nM and 5000 nM, respectively.

With `O=C(Nc1cncc(-c2ccc3[nH]nc(-c4nc5c(-c6cccs6)nccc5[nH]4)c3n2)c1)C1CC1` [Compound 356, N-(5-(3-(4-(Thiophen-2-yl)-1H-imidazo[4,5-c]pyridin-2-yl)-1H-pyrazolo [4,3-b]pyridin-5-yl)pyridin-3-yl)cyclopropanecarboxamide], in experiment [1], the EC50 was over 10000 nM and the inhibition at 10 µM was 4.1%. In experiment [2], this molecule yielded an EC50 of 5590 nM.

`CN(C)CCNc1cc(F)cc(-c2nccc3[nH]c(-c4n[nH]c5ccc(-c6ccccn6)nc45)nc23)c1` [Compound 476, N^1-(3-Fluoro-5-(2-(5-(pyridin-2-yl)-1H-pyrazolo[4,3-b]pyridin-3-yl)-1H-imidazo[4,5-c]pyridin-4-yl)phenyl)-N^2,N^2-dimethylethane-1,2-diamine]: the concentration for a half-maximal effect (EC50) in experiment [1] was determined as 8650 nM; in experiment [2] it was 1720 nM.

With `CN(C)CCOc1cncc(-c2ccc3[nH]nc(-c4nc5c(-c6cccc(F)c6)nccc5[nH]4)c3n2)c1` [Compound 515, 2-((5-(3-(4-(3-Fluorophenyl)-1H-imidazo[4,5-c]pyridin-2-yl)-1H-pyrazolo [4,3-b]pyridin-5-yl)pyridin-3-yl)oxy)-N,N-dimethylethan-1-amine], the EC50 was 3480 nM in experiment [1] and 865 nM in experiment [2].

On to `Fc1cccc(-c2nccc3[nH]c(-c4n[nH]c5ccc(C6CCNCC6)nc45)nc23)c1` [Compound 505, 3-(4-(3-Fluorophenyl)-1H-imidazo[4,5-c]pyridin-2-yl)-5-(piperidin-4-yl)-1H-pyrazolo[4,3-b]pyridine], for which, in experiment [1], the EC50 was over 10000 nM and the inhibition at 10 µM came out at 11.9%. The molecule also showed an EC50 in experiment [2] of 3800 nM.

In the case of `Oc1cncc(-c2ccc3[nH]nc(-c4nc5c(-c6cccc(F)c6)nccc5[nH]4)c3n2)c1` [Compound 517, 5-(3-(4-(3-Fluorophenyl)-1H-imidazo[4,5-c]pyridin-2-yl)-1H-pyrazolo[4,3-b]pyridin-5-yl)pyridin-3-ol], the EC50 in experiment [1] was found to be 523 nM; in experiment [2] it was 1560 nM.

Consider `CCCCC(=O)Nc1cncc(-c2ccc3[nH]nc(-c4nc5c(-c6cc(F)cc(NCCN(C)C)c6)nccc5[nH]4)c3n2)c1` [Compound 467, N-(5-(3-(4-(3-((2-(Dimethylamino)ethyl)amino)-5-fluorophenyl)-1H-imidazo[4,5-c]pyridin-2-yl)-1H-pyrazolo[4,3-b]pyridin-5-yl)pyridin-3-yl)pentanamide], for which, in experiment [1], the EC50 is over 10000 nM and the inhibition at 10 µM turned out to be 0%. Further, it took 1190 nM to reach a half-maximal effect in experiment [2] (EC50).

Consider `Cc1ccc(-c2nccc3[nH]c(-c4n[nH]c5ccc(-c6cncc(N)c6)nc45)nc23)s1` [Compound 395, 5-(3-(4-(5-Methylthiophen-2-yl)-1H-imidazo[4,5-c]pyridin-2-yl)-1H-pyrazolo[4,3-b]pyridin-5-yl)pyridin-3-amine], for which the EC50 in experiment [1] turned out to be 50 nM; in experiment [2] it was 5070 nM.

Molecule `CC(C)CC(=O)Nc1cncc(-c2ccc3[nH]nc(-c4nc5c(-c6cccc(F)c6)nccc5[nH]4)c3n2)c1` [Compound 2, N-(5-(3-(4-(3-Fluorophenyl)-1H-imidazo[4,5-c]pyridin-2-yl)-1H-pyrazolo [4,3-b]pyridin-5-yl)pyridin-3-yl)-3-methylbutanamide] showed an EC50 in experiment [1] of 8630 nM. For the same molecule, in experiment [2], the EC50 was over 10000 nM and the inhibition at 10 µM came out at 25.1%.

Take `Fc1cccc(-c2nccc3[nH]c(-c4n[nH]c5ccc(-c6cncc(OCCN7CCCC7)c6)nc45)nc23)c1` [Compound 514, 3-(4-(3-Fluorophenyl)-1H-imidazo[4,5-c]pyridin-2-yl)-5-(5-(2-(pyrrolidin-1-yl)ethoxy)pyridin-3-yl)-1H-pyrazolo[4,3-b]pyridine]: the EC50 turned out to be 2450 nM in experiment [1] and 1790 nM in experiment [2].

For the molecule `c1cc(-c2nccc3[nH]c(-c4n[nH]c5ccc(-c6cncc(OC7CCNCC7)c6)nc45)nc23)ccn1` [Compound 576, 5-(5-(Piperidin-4-yloxy)pyridin-3-yl)-3-(4-(pyridin-4-yl)-1H-imidazo[4,5-c]pyridin-2-yl)-1H-pyrazolo[4,3-b]pyridine], the EC50 in experiment [1] is over 10000 nM; in experiment [2], 2390 nM. Besides, the inhibition at 10 µM in experiment [1] is 17.9%.

On to `c1cncc(-c2nccc3[nH]c(-c4n[nH]c5ccc(-c6cncc(OC7CCCCC7)c6)nc45)nc23)c1` [Compound 559, 5-(5-(Cyclohexyloxy)pyridin-3-yl)-3-(4-(pyridin-3-yl)-1H-imidazo[4,5-c]pyridin-2-yl)-1H-pyrazolo[4,3-b]pyridine], for which the EC50 was 3250 nM in experiment [1] and 2730 nM in experiment [2].

As to `CN(C)c1cncc(-c2ccc3[nH]nc(-c4nc5c(-c6cccs6)nccc5[nH]4)c3n2)c1` [Compound 343, N,N-Dimethyl-5-(3-(4-(thiophen-2-yl)-1H-imidazo[4,5-c]pyridin-2-yl)-1H-pyrazolo[4,3-b]pyridin-5-yl)pyridin-3-amine], the EC50 in experiment [1] came to 803 nM; in experiment [2], 477 nM.

In the case of `Cn1cc(-c2ccc3[nH]nc(-c4nc5c(-c6cccc(F)c6)nccc5[nH]4)c3n2)cn1` [Compound 508, 3-(4-(3-Fluorophenyl)-1H-imidazo[4,5-c]pyridin-2-yl)-5-(1-methyl-1H-pyrazol-4-yl)-1H-pyrazolo[4,3-b]pyridine], the EC50 in experiment [1] amounted to 115 nM; in experiment [2], 106 nM.

By EC50 is commonly meant the concentration at which the effect is half-maximal. As a reminder, the inhibition is how much of the control response was suppressed.

The values are drawn from US10195185B2, “3-(1H-imidazo[4,5-C]pyridin-2-yl)-1H-pyrazolo[4,3-B]pyridines and therapeutic uses thereof” (Samumed, LLC, priority 2015, dated 2019).
